From EP0339465A2, “Antibacterial composition for oral administration” (MEIJI SEIKA KAISHA LTD., priority 1988, dated 1989)

Experiment: Stability in aqueous solution
Assay type: physicochemical
Conditions: aqueous solution of a pH value of 6 or above

Q: With `CO/N=C(\C(=O)N[C@@H]1C(=O)N2C(C(=O)OCOC(=O)C(C)(C)C)=C(/C=C\c3scnc3C)CS[C@H]12)c1csc(N)n1` [substance ME1207, pivaloyloxymethyl-(6R,7R)-7[(Z)-2-(2-aminothiazol-4-yl)-2-methoxyiminoacetamide]-3-[(Z)-2-(4-methylthiazol-5-yl)ethenyl]cephem-4-carboxylate] as the compound, how does the “stability in an aqueous solution” value read?
A: unstable
